Experiments:
hDAT [1] = target: T1, hDAT (Homo sapiens, UniProt Q01959); test: [3H]-WIN 35,428 binding displacement in hDAT N2A cells; settings: 10 μM, pre- or co-incubation
hDAT [2] = target: T1, hDAT; test: [125I]-RTI-55 binding, HEK-hDAT membranes; settings: for Hill coefficient: [125I]-RTI-55 binding
hSERT [3] = target: T2, hSERT (Homo sapiens, UniProt P31645); test: [125I]-RTI-55 binding, HEK-hSERT membranes; settings: for Hill coefficient: [125I]-RTI-55 binding
hNET [4] = target: T3, hNET (Homo sapiens, UniProt P23975); format: binding
hDAT [5] = target: T1, hDAT; test: [3H]-dopamine uptake inhibition, HEK-hDAT cells; format: cell-based; settings: switch to HEK cells
hSERT [6] = target: T2, hSERT; test: [3H]-serotonin uptake inhibition, HEK-hSERT cells; format: cell-based; settings: read-out: [3H]-Serotonin uptake IC50, mean ± SEM
hNET [7] = target: T3, hNET; format: cell-based
[8] = ref [17]; cited from earlier work
hDAT [9] = target: T1, hDAT; test: [3H]-dopamine uptake inhibition in hDAT N2A cells
DAT = settings: known DAT ligands; ref Ukairo et al. ([12]); cited from earlier work

T3 sequence (P23975 whole entry): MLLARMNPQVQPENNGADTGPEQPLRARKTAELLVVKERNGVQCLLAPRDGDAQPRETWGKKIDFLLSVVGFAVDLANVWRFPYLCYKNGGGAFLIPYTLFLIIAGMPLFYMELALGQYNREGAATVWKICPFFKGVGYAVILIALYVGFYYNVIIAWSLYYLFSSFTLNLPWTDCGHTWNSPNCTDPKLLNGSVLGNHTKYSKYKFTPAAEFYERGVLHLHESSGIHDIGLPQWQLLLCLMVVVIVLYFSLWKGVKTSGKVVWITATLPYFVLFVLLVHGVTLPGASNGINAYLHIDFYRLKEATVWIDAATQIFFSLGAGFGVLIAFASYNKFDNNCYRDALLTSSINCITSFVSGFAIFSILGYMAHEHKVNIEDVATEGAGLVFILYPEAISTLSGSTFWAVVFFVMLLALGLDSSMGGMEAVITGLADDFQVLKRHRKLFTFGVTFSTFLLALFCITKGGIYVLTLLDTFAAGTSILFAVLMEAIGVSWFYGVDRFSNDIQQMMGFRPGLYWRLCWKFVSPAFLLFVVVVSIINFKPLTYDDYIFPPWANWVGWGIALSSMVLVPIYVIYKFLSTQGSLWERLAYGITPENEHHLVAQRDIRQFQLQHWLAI
T1 sequence (Q01959 whole entry): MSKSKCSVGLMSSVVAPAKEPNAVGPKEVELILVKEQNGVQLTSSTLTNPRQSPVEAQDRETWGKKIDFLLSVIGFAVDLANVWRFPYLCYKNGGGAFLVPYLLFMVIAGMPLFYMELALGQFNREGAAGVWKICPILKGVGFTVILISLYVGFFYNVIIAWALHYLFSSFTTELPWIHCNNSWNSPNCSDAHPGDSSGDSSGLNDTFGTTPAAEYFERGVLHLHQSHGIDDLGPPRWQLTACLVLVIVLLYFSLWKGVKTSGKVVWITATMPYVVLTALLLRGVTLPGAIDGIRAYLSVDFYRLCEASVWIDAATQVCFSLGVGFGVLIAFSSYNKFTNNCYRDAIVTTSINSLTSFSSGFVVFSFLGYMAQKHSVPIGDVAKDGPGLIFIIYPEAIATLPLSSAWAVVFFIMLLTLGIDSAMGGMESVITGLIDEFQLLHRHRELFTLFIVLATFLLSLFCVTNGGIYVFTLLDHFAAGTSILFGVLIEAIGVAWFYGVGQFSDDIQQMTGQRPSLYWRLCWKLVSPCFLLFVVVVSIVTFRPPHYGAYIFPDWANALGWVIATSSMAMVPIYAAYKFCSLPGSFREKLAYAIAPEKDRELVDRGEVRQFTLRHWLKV
T2 sequence (P31645 whole entry): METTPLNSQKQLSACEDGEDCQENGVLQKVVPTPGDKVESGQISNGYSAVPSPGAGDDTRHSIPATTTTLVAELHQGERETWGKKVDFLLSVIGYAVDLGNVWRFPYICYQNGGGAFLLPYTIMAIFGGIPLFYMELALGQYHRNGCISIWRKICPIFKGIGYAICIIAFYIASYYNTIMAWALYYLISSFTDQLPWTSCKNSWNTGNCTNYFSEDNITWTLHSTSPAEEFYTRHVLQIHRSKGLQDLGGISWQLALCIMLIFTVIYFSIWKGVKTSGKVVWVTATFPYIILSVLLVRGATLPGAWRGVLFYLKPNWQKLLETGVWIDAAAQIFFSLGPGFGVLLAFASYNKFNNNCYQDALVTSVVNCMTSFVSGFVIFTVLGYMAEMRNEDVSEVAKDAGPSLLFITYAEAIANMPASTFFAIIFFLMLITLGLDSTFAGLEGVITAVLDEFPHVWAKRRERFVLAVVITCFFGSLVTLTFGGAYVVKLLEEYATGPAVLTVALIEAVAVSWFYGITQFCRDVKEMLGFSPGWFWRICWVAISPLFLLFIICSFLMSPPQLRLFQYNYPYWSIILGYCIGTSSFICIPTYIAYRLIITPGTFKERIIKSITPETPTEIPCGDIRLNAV

C[C@@H](CN1CCC(Cc2ccccc2)CC1)[C@@H](O)c1ccc(O)cc1.Cl (relative stereo) [MI-4, [R-(R*, S*)]-α-(4-Hydroxyphenyl)-β-methyl-4-(phenylmethyl)-1-piperidinepropanol hydrochloride]
Block of [3H]-WIN 35,428 binding in initial screen (hDAT [1]): able to block [^3H]-WIN 35,428 binding in a statistically significant fashion | DAT affinity lower than that of cocaine (hDAT [2]; HEK-hDAT cells): 20 fold | Hill coefficient (hDAT [2]; HEK-hDAT cells): -0.80 ± 0.10 | Ki (hDAT [2]; read-out: [125I]-RTI-55 binding Ki, HEK-hDAT cells, mean ± SEM): 3460 ± 260 nM | DAT affinity increase, HEK vs N2A cells (hDAT [2]; switch to HEK cells): ~2 fold | Affinity at hSERT higher than at hDAT (hSERT [3]; HEK cells): 5 fold | Hill coefficient (hSERT [3]; HEK-hSERT cells): -1.09 ± 0.04 | Ki (hSERT [3]; read-out: [125I]-RTI-55 binding Ki, HEK-hSERT cells, mean ± SEM): 670 ± 100 nM | Affinity at hNET higher than at hDAT (hNET [4]; HEK cells): 10 fold | Hill coefficient (hNET [4]; HEK-hNET cells, [125I]-RTI-55 binding): -1.04 ± 0.07 | Ki (hNET [4]; read-out: [125I]-RTI-55 binding Ki, HEK-hNET cells, mean ± SEM): 365 ± 68 nM | DUIP increase, HEK vs N2A cells (hDAT [5]): 4 fold | IC50 (hSERT [6]): 790 ± 170 nM | Substrate uptake inhibition potency at hNET greater than at hDAT (hNET [7]; HEK cells): 3 – 4 fold | IC50 (hNET [7]; read-out: [3H]-NE uptake IC50, HEK-hNET cells, mean ± SEM): 2090 ± 280 nM | Crosses the blood-brain barrier [8]: crosses the blood-brain barrier | [3H]-dopamine uptake inhibition in screening assay (hDAT [9]; 10 μM): did not appreciably inhibit dopamine uptake | Shift of cocaine DUIP IC50 by MI-4 (hDAT [9]; 10 μM MI-4): approximately 3 fold | IC50 (hDAT [9]; read-out: Dopamine uptake inhibition potency (DUIP)): 28000 nM

COC(=O)[C@@H]1CN(C)CC[C@@H]1c1ccc(Cl)cc1 [4-ARA-127, (1S, 3S, 4R)-4-(chlorophenyl)-3-[hydroxy(methyloxo)methyl]-1-methylpiperidin-1iium]
E pKi (experimental pKi) (DAT): 5.48

COC(=O)[C@H]1[C@@H](OC(=O)c2ccccc2)C[C@@H]2CC[C@H]1O2 [8-Oxa-norcocaine, methyl (1R,2R,3S,5S)-3-benzoyloxy-8-oxabicyclo[3.2.1]octane-2-carboxylate]
E pKi (experimental pKi) (DAT): 5.81

COC(=O)[C@H]1[C@@H](OC(=O)c2ccccc2)C[C@@H]2CC[C@H]1N2C [Cocaine, methyl (1R,2R,3S,5S)-3-benzoyloxy-8-methyl-8-azabicyclo[3.2.1]octane-2-carboxylate, reference compound]
Hill coefficient (hDAT [2]; HEK-hDAT cells): -0.81 ± 0.03 | Hill coefficient (hSERT [3]; HEK-hSERT cells): -1.12 ± 0.03

OC1(c2ccc(Cl)cc2)c2ccccc2C2=NCCN21 (stereo not shown) [Mazindol, 5-(4-chlorophenyl)-2,3-dihydroimidazo[2,1-a]isoindol-5-ol]
E pKi (experimental pKi) (DAT): 7.89

COC(=O)[C@H]1[C@@H](c2ccc(F)cc2)C[C@@H]2CC[C@H]1N2C [WIN 35,428, methyl (1R,2S,3S,5S)-3-(4-fluorophenyl)-8-methyl-8-azabicyclo[3.2.1]octane-2-carboxylate]
E pKi (experimental pKi) (DAT): 7.70
